Earlier results on two molecules are cited in patent publication US8796195B2 (priority 2007, dated 2014).

As usually defined, the pKa is the pH at which an ionisable group is half protonated.

For data set [1] the following is noted: based on 48% tetrafluoroboric acid.

Each structure is given as a SMILES string. Several values for one entry are separate records, joined by “and”; a condition that tells them apart may be missing. Equal values may be shown once.

On to `F` [HF, hydrofluoric acid], for which the pKa was 3.4 and ~3.5.
For `F[B-](F)(F)F.[H+]` [Tetrafluoroboric acid, tetrafluoroboric acid], the pKa result was “approximately −3”. The “LD50 (toxic by ingestion)” value in data set [1] is 100 to 464 mg/kg.
